Data reported in PMC8140105 (Scientific Reports, 2021).

Assays:
[1] = test system: Caco-2 monolayer; test: Caco-2 assay (apparent permeability); assay type: in vitro ADME
Procedure: Caco-2 (Sigma-Aldrich, Diegem, Belgium) cells were grown in DMEM supplemented with 10% FBS, 1% NEAA and 1% penicillin/streptomycin solution. A total of 3 × 10^5 cells per filter were seeded in a 12-well plate and left for differentiation during 21–29 days (medium change every other day). Monolayer formation was checked by measuring the TEER values which should be above 0.30 kΩ × cm^2 [72]. After washing with Hank’s balanced salt solution, 400 µL of a 1 µM peptide solution was added to the apical side of the filter. After 30, 60, 90 and 120 min, 100 µL of the acceptor compartment was taken for UPLC-MS/MS analysis (Supplementary method S2). Linear curve fitting was used to calculate the apparent permeability coefficient (Papp), as sink conditions were achieved.
The reduction in acceptor concentration was also taken into account after every sampling. The cumulative amount in the acceptor compartment is defined as:2 Cumulativeamount=CrnVr+∑k=1n-1CrkVs with Crk = concentration at sample point k in acceptor compartment; Vr = volume in the receiver chamber; Vs = volume sampled; n = times sampled. […]
Supplementary method S2: UPLC-MS parameters Caco-2 assay
Aliquots of the acceptor compartment are analyzed using the following validated UPLC-
Column Acquity UPLC BEH C18 (2.1 × 100 mm, 1.7 µm) protected with a suitable guard
Sample temperature: 10°C.
A: 93/2/5 (v/v) H2O + ACN + DMSO + 0.1% FA
B: 2/93/5 (v/v) H2O + ACN + DMSO + 0.1% FA
Table 1: Quantifier of PapRIV.
Peptide Mother ion Daughter ion Collision energy MS
Injection volume: 10.0 µL
Table 2: Gradient program
Time (min) Mobile phase A (%) Mobile phase B (%)

[2] = Multiple time regression (MTR) analysis, blood-to-brain influx; assay type: in vivo, ICR-CD-1 mice
Procedure: Briefly, 0.1 µmol of the lyophilized peptide was dissolved in 100 µL of phosphate buffer (pH 7.4, 25 mM). A Iodo-Gen coated tube (Thermo Scientific, Merelbeke, Belgium) was first of all rinsed with 1 mL of phosphate buffer. Subsequently, 50 µL of sodium iodide solution (1.1 µmol/mL) and 1 mCi of Na^125I solution (Perking Elmer, Zaventem, Belgium) were transferred into this Iodo-Gen coated tube. The oxidation reaction was allowed to proceed for six minutes at room temperature, after which the iodonium solution was transferred to 50 µL of peptide solution (1 mM). The iodination reaction of the peptide was allowed to proceed for another six minutes at room temperature. Finally, the iodinated peptide was purified using a silver filter (Thermo Scientific, Merelbeke, Belgium).
In order to determine whether the peptide could enter the brain, in vivo multiple time regression (MTR) analysis was performed. ICR-CD-1 mice were anesthetized intraperitoneally using a 40% urethane solution (3 g/kg). […] At specified time points after injection (i.e. 1, 3, 5, 10, 12.5 and 15 min, with start and end in duplicate), blood was obtained from the carotid artery followed by decapitation of the mouse. The isolated brain was weighed and radioactivity measured in a gamma counter for 5 min (Wallac Wizard automatic gamma counter, Perkin Elmer, Shelton, CT, USA), as well as from 50 µL serum, which was obtained by centrifuging the collected blood at 10,000g for 15 min at 21 °C. The linear and biphasic modeling of the multiple time regression analysis was performed as previously described.

[3] = test system: BV-2 cells; test: qPCR of IL-6 mRNA; assay type: cell-based, murine; conditions: 10 µM, n = 6, Mann–Whitney U test
Procedure: To confirm the observed ELISA results at mRNA level, a qPCR experiment was performed. After incubation of the BV-2 cells with PapRIV or controls, cells were lysed in RLT buffer (Qiagen, Hilden, Germany) supplemented with 1% β-mercaptoethanol. The lysate was stored at − 80 °C until RNA extraction. RNA was extracted using the RNeasy Mini Kit (Qiagen, Hilden, Germany). DNAse steps were included in the protocol to remove possible DNA contamination. RNA purity and concentration were assessed using spectrophotometry (NanoDrop), while RNA quality was evaluated using capillary electrophoresis (Fragment Analyzer). After extraction, the RNA was immediately converted to cDNA which was stored at − 20 °C until qPCR analysis. Ppia and Rer were chosen as suitable control genes based on the GeNorm and Normfinder algorithms[79],[80]. Used primers are given in Table 5. qPCR cycling was performed using a LightCycler 480 (Roche), with Cq values being calculated using the second derivative threshold method.

[4] = test system: BV-2 cells; test: Immunoblotting (NF-kB p65, IκBα, NIK); assay type: cell-based, murine
Procedure: To assess nuclear translocation of NF-kB, cells were lysed after 20 h using the NE-PER protocol (Thermo Scientific). Using this kit, the cytoplasmic and nuclear protein fractions are separated from each other. To asses IκBα expression, cells were lysed with RIPA buffer. Protein content of the lysates was determined using the modified Lowry assay (Thermo Scientific). Proteins (20 µg) were separated using an Any kD gel (SDS-PAGE) and transferred to a nitrocellulose membrane (BioRad, Temse, Belgium). Aspecific binding sites were blocked for 30 min using TBS + 1% casein (BioRad, Temse, Belgium). Western blot was performed using the following primary polyclonal antibodies overnight (4 °C): anti-p65 NFkB (1/500), anti-IκBα (1/1000) and anti-β-actin (1/1000), β-tubulin (1/4000) and anti-Histon H3.3 (1/5000) were used as loading controls. Goat anti-rabbit-AP antibody was used for detection (1/10,000) (60 min). All antibodies were purchased at Thermo Scientific (Merelbeke, Belgium). Finally, the BCIP/NBT substrate was added and the results were analyzed using the GelDoc EZ imager and Image Lab software (BioRad, Temse, Belgium). TBS buffer was used for washing between the steps.

SDLPFEH [PapRIV, heptapeptide (SDLPFEH) quorum sensing peptide originating from the Bacillus cereus group; synthetic, purchased from GL Biochem]
Papp at 4 °C ([1]; Caco-2, 4 °C, compared with Papp at 37 °C, n = 6 (Supplementary Fig. S1)): comparable
Papp ([1]; Caco-2, apical to basolateral, 1 µM peptide (400 µL) after washing with Hank's balanced salt solution, cells differentiated 21–29 days, TEER above 0.30 kΩ × cm^2, acceptor sampled 30, 60, 90, 120 min, 37 °C, UPLC-MS/MS, linear fit, n = 6): 1.37 ± 0.21 × 10^–9 cm/s
Papp in the opposite basolateral-apical direction ([1]; Caco-2, basolateral to apical, compared with apical-basolateral Papp, n = 6 (Supplementary Fig. S1)): comparable
mass balance ([1]; Caco-2 assay, 1 µM, 120 min): < 2%
K1 ([2]; 125I-labelled, i.v. (jugular vein), mice, 1–15 min, biphasic model, mean ± standard error): 6.95 ± 6.25 µL/g/min
initial brain influx rate (Ki) ([2]; 125I-labelled, i.v., mice, biphasic model): 6.95 µL/g/min
Tissue brain distribution volume, Vg ([2]; 125I-labelled, i.v., mice, biphasic model, mean ± standard error): 35.70 ± 61.73 µL/g
brain influx class according to the classification system of Stalmans et al. ([2]; classification by influx rate): very high brain influx
IL-6 mRNA expression [3]: increased
NF-kB nuclear translocation ([4]; 20 h, n = 3): increased
NIK expression ([4]; data not shown): not observed
IκBα levels ([4]; n = 3): decreasing
